Earlier results on one molecule are cited in patent US20250213469A1, “DOSAGE FORMS OF ACTIVE […] AGAINST VIRAL DISEASES IN DRY POWDER INHALER DEVICE FOR SYMPTOMS CAUSED BY COVID-19 AND OTHER VIRAL LUNG DISEASES” ([…] EGITIM D[…].S., priority 2022, published 2025).

For this series the following is noted: C3H/HeN mice, positron emission tomography; literature study of Bocan et al.

For `NC(=O)c1nc(F)c[nH]c1=O` [[^18F] Favipiravir], the “tissue retention (biodistribution) of the active substance” value was “retained lowest in the lungs and the most in the kidney, liver and stomach”.
